Test results published in patent US20180312473A1, “PHENAZINE DERIVATIVES AS ANTIMICROBIAL AGENTS” (priority 2015, published 2018).
In brackets after ≈: the same amount, converted by molar mass. Read-outs that look alike come from different tables or passages of the source.

Columns and labels:
[1] = test system: Enterococcus faecium (ATCC 700221), VRE; experiment: MIC assay (broth microdilution, CLSI); format: cell-based
[2] = test system: MRSA-2 planktonic cells and biofilms; experiment: Calgary Biofilm Device (CBD) assay, MBC/MBEC; format: cell-based, Staphylococcus aureus; details: Staphylococcus aureus, MRSA
[3] = test system: human red blood cells; experiment: Hemolysis assay with red blood cells; details: human, 1 h, 200 μM, pH 7.2
Protocol: The hemolysis activities of select compounds of the invention were determined. […] The washing was repeated three times with the buffer. In 96-well plate, test compounds were added to the buffer from DMSO stocks. […] The plate was then incubated for 1 hour at 37° C. After incubation, the plate was centrifuged for 5 minutes at 3,500 rpm. Then 80 μL of the supernatant was transferred to another 96-well plate, and the optical density (OD) was read at 405 nm. DMSO served as the negative control (0% hemolysis), while Triton X served as the positive control (100% hemolysis). The percent of hemolysis was calculated as (OD405 of the compound−OD405 of DMSO)/(OD405 of Triton X−OD405 of the buffer).
The washing was repeated three times with the buffer. In 96-well plate, test compounds were added to the buffer from DMSO stocks. […] The plate was then incubated for 1 hour at 37° C. After incubation, the plate was centrifuged for 5 minutes at 3,500 rpm. Then 80 μL of the supernatant was transferred to another 96-well plate and the optical density (OD) was read at 405 nm. DMSO served as our negative control (0% hemolysis) while Triton X served as our positive control (100% hemolysis). The percent of hemolysis was calculated as (OD405 of the test compound−OD405 DMSO)/(OD405 Triton X−OD405 buffer) from three independent experiments.

[4] = test system: S. epidermidis 12228; experiment: MIC assay with Tiron or metal(II) cation co-treatment; format: cell-based, Staphylococcus epidermidis
[5] = test system: E. faecium 700221 (VRE); experiment: as above; format: cell-based, Enterococcus faecium
[6] = test system: MRSA-2; experiment: as above; format: cell-based, Staphylococcus aureus
[7] = test system: M. tuberculosis H37Ra (ATCC 25177); experiment: Mycobacterium tuberculosis MIC assay; format: cell-based; details: Mycobacterium tuberculosis
Protocol: (§1) The culture was then diluted with fresh medium until an OD600 of 0.01 was reached. […] The final DMSO concentration was maintained at 0.5%. […] Three rows were reserved for each compound. […] OD600 absorbance was recorded using SPECTRAMAX M5 (Molecular Devices). Data obtained from three independent experiments were analyzed using Excel.
as §1, with “EXCEL.” for “Excel.”

[8] = test system: MRSE (S. epidermidis ATCC 35984) planktonic cells and biofilms; experiment: Calgary Biofilm Device (CBD) assay, MBC/MBEC; format: cell-based, Staphylococcus epidermidis; details: Staphylococcus epidermidis; Table 8; read-out: MRSE 35984 MBC
[9] = test system: VRE (E. faecium ATCC 700221) planktonic cells and biofilms; experiment: Calgary Biofilm Device (CBD) assay, MBC/MBEC; format: cell-based, Enterococcus faecium; details: Enterococcus; Table 8; c lowest concentration tested; read-out: VRE 700221 MBC
[10] = Table 8, a/b 2-/4-fold range in independent experiments, read-out: MRSA-2 MBC
[11] = S. epidermidis 12228, + loss, − increase of activity
[12] = E. faecium 700221, + loss, − increase of activity
[13] = MRSA-2, + loss, − increase of activity

Oc1c(I)cc(Br)c2nc3ccccc3nc12 [Compound 10, 4-Bromo-2-iodo-1-hydroxyphenazine]
MIC ([1]; Enterococcus faecium, Table 2A, read-out: MIC, Enterococcus faecium (ATCC 700221)): 6.25 µM (≈ 2.51 µg/mL) | MIC ([1]; Table 7, b lowest concentration tested, read-out: MIC, VRE 700221): 6.25 µM (≈ 2.51 µg/mL) | melting point: 188 to 190 °C | MBC ([2]; Table 4, read-out: MBC, MRSA-2): 46.9 µM (≈ 18.8 µg/mL) | MBC [2, 10]: 46.9 µM (≈ 18.8 µg/mL) | % Hemolysis (200 μM) [3]: 1.3% | % Hemolysis at 200 μM [3]: 1.3%

Oc1cccc2cccnc12 [Compound 8-HQ, 8-hydroxyquinoline, reference compound]
MIC ([4]; S. epidermidis 12228, 1 mM Tiron, read-out: MIC with Tiron): >100 µM | MIC ([4]; S. epidermidis 12228, no additive, read-out: MIC): 3.13 µM | Fold Δ (Cu^2+) [4, 11]: n.a. (insignificant changes in MIC values (≤2-fold changes)) | Fold Δ (MIC with Tiron vs MIC) [4, 11]: >+32 | Fold Δ (Tiron) [4, 11]: >+32 | MIC ([4]; Staphylococcus epidermidis, 12228): 3.13 µM | MIC ([4]; Staphylococcus epidermidis, 12228, read-out: MIC with Cu^2+): 3.13 µM | MIC ([4]; Staphylococcus epidermidis, 12228, read-out: MIC with Tiron): > 100 µM | MIC [5]: 18.8 µM | Fold Δ (Cu^2+) [5, 12]: n.a. (insignificant changes in MIC values (≤2-fold changes)) | Fold Δ (Tiron) [5, 12]: >+12 | MIC ([5]; Enterococcus faecium, VRE): 18.8 µM | MIC ([5]; Enterococcus faecium, VRE, read-out: MIC with Cu^2+): 18.8 µM | MIC ([5]; Enterococcus faecium, VRE, read-out: MIC with Tiron): > 100 µM | Fold Δ (MIC with Tiron vs MIC) ([5]; VRE 700221, + loss, − increase of activity): >+12 | MIC ([5]; read-out: MIC with Tiron): > 100 µM | effect of tiron co-treatment on antibacterial activity ([6]; MRSA-2): complete loss of antibacterial activity | MIC ([6]; MRSA-2, 1 mM Tiron, read-out: MIC with Tiron): >100 µM | MIC ([6]; MRSA-2, no additive (Table 9), read-out: MIC): 6.25 µM | Fold Δ (Cu^2+) [6, 13]: n.a. (insignificant changes in MIC values (<2-fold changes)) | Fold Δ (Fe^2+) [6, 13]: n.a. (insignificant changes in MIC values (<2-fold changes)) | Fold Δ (Tiron) [6, 13]: +16 | Fold Δ (MIC with Tiron vs MIC) ([6]; MRSA-2, + loss, − increase of antibacterial activity): +16 | MIC ([6]; Staphylococcus aureus, MRSA): 6.25 µM | MIC ([6]; Staphylococcus aureus, MRSA, read-out: MIC with Cu^2+): 3.13 µM | MIC ([6]; Staphylococcus aureus, MRSA, read-out: MIC with Fe^2+): 6.25 µM | MIC ([6]; Staphylococcus aureus, MRSA, read-out: MIC with Tiron): > 100 µM

[H]/N=C(/N)N[C@H]1[C@H](O)[C@@H](O)[C@H](O[C@@H]2O[C@@H](C)[C@](O)(C=O)[C@H]2O[C@@H]2O[C@@H](CO)[C@H](O)[C@@H](O)[C@@H]2NC)[C@@H](N/C(N)=N\[H])[C@@H]1O [Streptomycin, streptomycin, reference compound]
MIC ([7]; 168 h, read-out: Mtb MIC): 1.32 µM (≈ 0.768 µg/mL) | MIC ([7]; Table 7, read-out: MIC, M. tuberculosis H37Ra): 1.32 µM (≈ 0.768 µg/mL)

CN(C)[C@@H]1C(O)=C(C(N)=O)C(=O)[C@@]2(O)C(O)=C3C(=O)c4c(O)cccc4[C@@](C)(O)[C@H]3C[C@@H]12 [Tetracyc., tetracycline, reference compound]
Fold Δ (Cu^2+) [6, 13]: n.a. (insignificant changes in MIC values (<2-fold changes)) | Fold Δ (Fe^2+) [6, 13]: +16 | MIC ([6]; Staphylococcus aureus, MRSA-2, 200 μM copper(II), read-out: MIC with Cu^2+): 1.56 µM | MIC ([6]; Staphylococcus aureus, MRSA-2, 200 μM iron(II), read-out: MIC with Fe^2+): 18.8 µM | MIC ([6]; Staphylococcus aureus, MRSA-2, no additive (Table 9), read-out: MIC): 1.17 µM

CC(=O)N[C@@H](CS)C(=O)O [NAC, N-acetyl cysteine, reference compound]
MBC [8]: > 2000 µM | MBC ([2]; Table 4, read-out: MBC, MRSA-2): > 2000 µM | MBC [2, 10]: > 2000 µM | MBC [9]: > 2000 µM
